Assays:
[1] = biological target: human glucagon receptor (GCGR) (Homo sapiens (Human), UniProt P47871); test: Inhibition of 125I-glucagon binding to membranes from HEK293 cells expressing the human glucagon receptor; conditions: membranes of hGluc-1 HEK cells, 125I-glucagon 0.3 nM, 2 hours room temperature; IC50 converted to Ki; average if tested more than once
Experimental: Inhibition ^125I-Glucagon Binding to Membranes from HEK293 Cells Expressing the Human Glucagon Receptor (GCGR)
Full-length human GCGR (Accession Number: NM000160) subcloned into pcDNA3.1 was stably transfected into HEK293 cells (hGluc-1 HEK) and maintained under G418 selection (500 μg/mL). Cell cultures were maintained in DMEM/F12 media supplemented with 10% FBS and 1% GlutaMax. Membranes were prepared from these cells as follows: cells were harvested from T225 flasks and re-suspended in hypotonic lysis buffer, 50 mM HEPES pH 7.4 supplemented with Complete Protease inhibitors (Boehringer Mannheim, Indianapolis, Ind.). Cells were dounced 20 times on ice and spun at 700×g to remove nuclei and unlysed cells. The resulting pellet was re-suspended in hypotonic lysis buffer and the above step was repeated. Supernatants from the low speed centrifugation were combined and subsequently spun at 100K×g for 1 hr at 4° C. and the resulting pellet was re-suspended in buffer containing 50 mM HEPES pH 7.4 and 10% sucrose and the protein concentration was adjusted at 1 mg/mL as determined in the BCA assay. Membranes were aliquoted and stored at −80° C. The binding assay was performed by a filtration method in a 384 well format. Membranes at a final protein concentration of 6 μg/well were incubated with ^125I-glucagon at 0.3 nM and in the presence of compound for 2 hours at room temperature in a total reaction volume of 40 μL per well. Assay buffer consisted of 50 mM HEPES, pH 7.4, 5 mM MgCl2, 1 mM CaCl2 and 0.2% BSA. 30 μL of the reaction was then transferred to PEI treated filter plates and followed by filter aspiration. Plates were then washed 5× and allowed to dry at room temperature overnight. The next day the bottom of the plate was covered with seal tape and scintillant was added. Total counts retained by the filters were quantified with a Top Count instrument. IC50's were generated by using a non-linear regression macro driven in Excel and converted to K's.

human GCGR = human GCGR (Homo sapiens (Human), UniProt P47871); test: Cellular functional assay, cAMP readout (glucagon-stimulated cAMP in HEK293 cells expressing human GCGR); format: cell-based; conditions: hGluc-1 HEK cells, LANCE TR-FRET, IC50 converted to Ki, average if tested more than once
human GCGR, sequence (P47871 26-477): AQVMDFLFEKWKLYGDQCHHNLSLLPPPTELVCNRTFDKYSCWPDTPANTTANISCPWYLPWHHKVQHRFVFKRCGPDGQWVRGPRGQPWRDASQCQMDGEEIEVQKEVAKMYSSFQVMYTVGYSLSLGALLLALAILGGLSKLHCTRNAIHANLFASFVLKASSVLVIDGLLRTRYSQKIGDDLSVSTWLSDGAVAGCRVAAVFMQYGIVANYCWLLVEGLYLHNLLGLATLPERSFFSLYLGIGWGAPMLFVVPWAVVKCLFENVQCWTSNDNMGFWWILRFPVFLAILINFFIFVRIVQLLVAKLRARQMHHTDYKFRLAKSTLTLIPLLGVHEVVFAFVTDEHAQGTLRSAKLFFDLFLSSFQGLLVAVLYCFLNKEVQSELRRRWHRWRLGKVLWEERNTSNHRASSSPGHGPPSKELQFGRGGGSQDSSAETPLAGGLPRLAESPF
Experimental: IC50 Values in Cellular Functional Assays: cAMP Readout
Full-length human GCGR (Accession Number: NM000160) subcloned into pcDNA3.1 was stably transfected into HEK293 cells (hGluc-1 HEK) and maintained under G418 selection (500 μg/mL). Cell cultures were maintained in DMEM/F12 media supplemented with 10% FBS and 1% GlutaMax. Glucagon stimulated cAMP was quantified using LANCE technology as per manufacturer instructions. On the day of the experiment, spent media was removed and cells were washed with Hank's Buffered Saline solution (HBSS) and cells were harvested with non-enzymatic cell dissociation solution, then washed once with HBSS. Cells were re-suspended in stimulation buffer at a concentration of 0.83×10^6 cells/ml and cAMP detection antibody was added. 6 μl/well of this solution was then dispensed in a 384 well plate (cell density 5000 cells/well). Test compound was serially diluted in DMSO and 50 nl were dispensed on top of the cell solution and allowed to incubate for 30 minutes. 6 μl of a 2× glucagon solution (final concentration in assay […]) was then added and the reaction was terminated after 5 minutes with the addition of detection mix. The mixture was incubated, protected from light for 1.5 h. cAMP levels were quantified by TR-FRET in an EnVision instrument against a known standard. IC50's were generated by using a non-linear regression macro driven in Excel and converted to K, values.

human glucagon receptor (GCGR), sequence (P47871 26-477): as above

SMILES	Ki [1] [nM]	Ki (human GCGR) [nM]
O=C(O)CCNC(=O)c1ccc(-c2ccccc2CNc2ccc(-c3ccc(C(F)(F)F)cc3)cc2)cn1 [Compound 9]	95.7	550
O=C(O)CCNC(=O)c1ccc(-c2cc(Cl)ccc2CNc2ccc(-c3ccc(Cl)cc3)c(Cl)c2)cn1 [Compound 10, 3-(5-(5-chloro-2-(((2,4′-dichloro-[1,1′-biphenyl]-4-yl)amino)methyl)phenyl)picolinamido)propanoic acid]	31.2	110
O=C(O)CCNC(=O)c1ccc(-c2cc(Cl)ccc2CNc2ccc(-c3ccc(Cl)cc3Cl)cc2F)cn1 [Compound 11, 3-(5-(5-chloro-2-(((2′,4′-dichloro-3-fluoro-[1,1′-biphenyl]-4-yl)amino)methyl)phenyl)picolinamido)propanoic acid]	41.2	265
O=C(O)CCNC(=O)c1ccc(-c2cc(Cl)ccc2CNc2ccc(-c3ccc(Cl)cc3)cc2F)cn1 [Compound 12, 3-(5-(5-chloro-2-(((4′-chloro-3-fluoro-[1,1′-biphenyl]-4-yl)amino)methyl)phenyl)picolinamido)propanoic acid]	53	500
O=C(O)CCNC(=O)c1ccc(-c2cc(Cl)ccc2CNc2ccc(-c3ccc(Cl)c(F)c3)cc2F)cn1 [Compound 13, 3-(5-(5-chloro-2-(((4′-chloro-3,3′-difluoro-[1,1′-biphenyl]-4-yl)amino)methyl)phenyl)picolinamido)propanoic acid]	39.3	311
O=C(O)CCNC(=O)c1ccc(-c2cc(Cl)ccc2CNc2ccc(-c3ccc(F)cc3)cc2)cn1 [Compound 15, 3-(5-(5-chloro-2-(((4′-fluoro-[1,1′-biphenyl]-4-yl)amino)methyl)phenyl)picolinamido)propanoic acid]	33.9	90.6
O=C(O)CCNC(=O)c1ccc(-c2cc(Cl)ccc2C(=O)Nc2ccc(-c3ccc(Cl)cc3)cc2)cn1 [Compound 16, 3-(5-(5-chloro-2-((4% chloro-[1,1′-biphenyl]-4-yl)carbamoyl)phenyl)picolinamido)propanoic acid]	43.8	50.5
CN(Cc1ccc(Cl)cc1-c1ccc(C(=O)NCCC(=O)O)nc1)c1ccc(-c2ccc(Cl)cc2)cc1 [Compound 17, 3-(5-(5-chloro-2-(((4′-chloro-[1,1′-biphenyl]-4-yl)(methyl)amino)methyl)phenyl)picolinamido)propanoic acid]	1480	> 10400
O=C(O)CCNC(=O)c1ccc(-c2cc(Cl)ccc2C(=O)Nc2ccc(-c3ccc(Cl)cc3Cl)cc2)cn1 [Compound 19, 3-(5-(5-chloro-2-((2′,4′-dichloro-[1,1′-biphenyl]-4-yl)carbamoyl)phenyl)picolinamido)propanoic acid]	39.6	45.8
O=C(O)CCNC(=O)c1ccc(-c2cc(Cl)ccc2C(=O)Nc2ccc(-c3ccc(F)cc3)cc2)cn1 [Compound 20, 3-(5-(5-chloro-2-((4′-fluoro-[1,1′-biphenyl]-4-yl)carbamoyl)phenyl)picolinamido)propanoic acid]	61.4	158

Second part, the compound after the results:

Ki [1] [nM]	Ki (human GCGR) [nM]	SMILES
25.2	22.4	Cc1cc(Cl)ccc1-c1ccc(NCc2ccc(C(F)(F)F)cc2-c2ccc(C(=O)NCCC(=O)O)nc2)cc1 [Compound 22, 3-(5-(2-(((4′-chloro-2′-methyl-[1,1′-biphenyl]-4-yl)amino)methyl)-5-(trifluoromethyl)phenyl)picolinamido)propanoic acid]
26.1	130	O=C(O)CCNC(=O)c1ccc(-c2cc(C(F)(F)F)ccc2CNc2ccc(-c3ccc(F)cc3Cl)cc2)cn1 [Compound 23, 3-(5-(2-(((2′-chloro-4′-fluoro-[1,1′-biphenyl]-4-yl)amino)methyl)-5-(trifluoromethyl)phenyl)picolinamido)propanoic acid]
28.3	32.4	O=C(O)CCNC(=O)c1ccc(-c2cc(C(F)(F)F)ccc2CNc2ccc(-c3ccc(C(F)(F)F)cc3Cl)cc2)cn1 [Compound 24, 3-(5-(2-(((2′-chloro-4′-(trifluoromethyl)-[1,1′-biphenyl]-4-yl)amino)methyl)-5-(trifluoromethyl)phenyl)picolinamido)propanoic acid]
29.6	175	O=C(O)CCNC(=O)c1ccc(-c2cc(C(F)(F)F)ccc2CNc2ccc(-c3ccc(F)c(C(F)(F)F)c3)cc2)cn1 [Compound 26, 3-(5-(2-(((4′-fluoro-3′-(trifluoromethyl)-[1,1′-biphenyl]-4-yl)amino)methyl)-5-(trifluoromethyl)phenyl)picolinamido)propanoic acid]
21.5	17.3	O=C(O)CCNC(=O)c1ccc(-c2cc(C(F)(F)F)ccc2CNc2ccc(-c3ccc(Cl)cc3Cl)c(Cl)c2)cn1 [Compound 27, 3-(5-(2-(((2,2′,4′-trichloro-[1,1′-biphenyl]-4-yl)amino)methyl)-5-(trifluoromethyl)phenyl)picolinamido)propanoic acid]
28	31.6	O=C(O)CCNC(=O)c1ccc(-c2cc(C(F)(F)F)ccc2CNc2ccc(-c3ccc(Cl)cc3)c(Cl)c2)cn1 [Compound 28, 3-(5-(2-(((2,4′-dichloro-[1,1′-biphenyl]-4-yl)amino)methyl)-5-(trifluoromethyl)phenyl)picolinamido)propanoic acid]
30.4	62	O=C(O)CCNC(=O)c1ccc(-c2cc(C(F)(F)F)ccc2CNc2ccc(-c3ccc(C(F)(F)F)cc3)cc2)cn1 [Compound 29, 3-(5-(5-(trifluoromethyl)-2-(((4′-(trifluoromethyl)-[1,1′-biphenyl]-4-yl)amino)methyl)phenyl)picolinamido)propanoic acid]
19.3	19.4	Cc1cc(C(F)(F)F)ccc1-c1ccc(NCc2ccc(C(F)(F)F)cc2-c2ccc(C(=O)NCCC(=O)O)nc2)cc1 [Compound 30, 3-(5-(2-(((2′-methyl-4′-(trifluoromethyl)-[1,1′-biphenyl]-4-yl)amino)methyl)-5-(trifluoromethyl)phenyl)picolinamido)propanoic acid]
22.1	19.4	O=C(O)CCNC(=O)c1ccc(-c2cc(C(F)(F)F)ccc2CNc2ccc(-c3ccc(F)c(C(F)(F)F)c3)c(Cl)c2)cn1 [Compound 31, 3-(5-(2-(((2-chloro-4′-fluoro-3′-(trifluoromethyl)-[1,1′-biphenyl]-4-yl)amino)methyl)-5-(trifluoromethyl)phenyl)picolinamido)propanoic acid]
25.1	72.5	O=C(O)CCNC(=O)c1ccc(-c2cc(C(F)(F)F)ccc2CNc2ccc(-c3ccc(Cl)c(C(F)(F)F)c3)c(Cl)c2)cn1 [Compound 32, 3-(5-(2-(((2,4′-dichloro-3′-(trifluoromethyl)-[1,1′-biphenyl]-4-yl)amino)methyl)-5-(trifluoromethyl)phenyl)picolinamido)propanoic acid]
21.3	59.8	O=C(O)CCNC(=O)c1ccc(-c2cc(C(F)(F)F)ccc2CNc2ccc(-c3ccc(F)cc3Cl)c(Cl)c2)cn1 [Compound 33, 3-(5-(2-(((2,2′-dichloro-4′-fluoro-[1,1′-biphenyl]-4-yl)amino)methyl)-5-(trifluoromethyl)phenyl)picolinamido)propanoic acid]
23.8	17.1	Cc1cc(Cl)ccc1-c1ccc(NCc2ccc(C(F)(F)F)cc2-c2ccc(C(=O)NCCC(=O)O)nc2)cc1Cl [Compound 34, 3-(5-(2-(((2,4′-dichloro-2′-methyl-[1,1′-biphenyl]-4-yl)amino)methyl)-5-(trifluoromethyl)phenyl)picolinamido)propanoic acid]

Source: patent US8748624B2, “Picolinamido-propanoic acid derivatives useful as glucagon receptor antagonists” (Janssen Pharmaceutica NV, priority 2011, dated 2014)
